Target: human σ1 receptor (Homo sapiens (Human), UniProt Q99720)
Assay: Human σ1 receptor radioligand assay
Type: binding
Settings: transfected HEK-293 membranes, [3H](+)-pentazocine radioligand
Description: Human σ1 Receptor Radioligand Assay
The assay was carried out with 7 μg of membrane suspension, 5 nM of [^3H](+)-pentazocine in either absence or presence of either buffer or 10 μM Haloperidol for total and non-specific binding, respectively. Binding buffer contained Tris-HCl 50 mM at pH 8. Plates were incubated at 37° C. for 120 minutes. […] Filters were dried and counted at approximately 40% efficiency in a MicroBeta scintillation counter (Perkin-Elmer) using EcoScint liquid scintillation cocktail

Sequence of human σ1 receptor (Q99720 whole entry): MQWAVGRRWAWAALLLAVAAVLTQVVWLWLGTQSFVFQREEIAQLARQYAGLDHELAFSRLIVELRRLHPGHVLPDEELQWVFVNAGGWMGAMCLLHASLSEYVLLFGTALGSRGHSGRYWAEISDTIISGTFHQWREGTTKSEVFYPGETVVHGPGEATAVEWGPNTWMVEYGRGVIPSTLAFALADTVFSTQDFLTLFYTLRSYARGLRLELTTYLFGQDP

`CCN1CC2(CCN(CCC(C)(C)C)CC2)O[C@@H](C)C1=O` [Example 52, (S)-9-(3,3-dimethylbutyl)-4-ethyl-2-methyl-1-oxa-4,9-diazaspiro[5.5]undecan-3-one] gave a Ki of under 500 nM.

— patent US11649248B2, “Oxadiazaspiro compounds for the treatment of drug abuse and addiction” (ESTEVE PHARMACEUTICALS, S.A., priority 2015, dated 2023)
